In patent publication US6737383B1, “Herbicidal oxadiazolidines” (priority 1999, dated 2004):

What was measured:
pigweed = assay: Test B pre/postemergence pigweed; type: in vivo, Amaranthus retroflexus
In short: (§1)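 Test chemicals in a non-phytotoxic solvent mixture with surfactant were sprayed preemergence onto planted seeds and postemergence onto plants 2 to 18 cm tall (1- to 4-leaf stage). After twelve to sixteen days in a greenhouse, injury was visually rated against untreated controls from 0 (no effect) to 10 (complete control).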

blackgrass = assay: Test B pre/postemergence blackgrass; type: in vivo, Alopecurus myosuroides
In short: as §1

giant foxtail = assay: Test B pre/postemergence giant foxtail; type: in vivo, Setaria faberii
In short: as §1

soybean = assay: Test B pre/postemergence soybean; type: in vivo, Glycine max
In short: as §1

corn = assay: Test B pre/postemergence corn; type: in vivo, Zea mays
In short: as §1

morningglory = assay: Test B pre/postemergence morningglory; type: in vivo, Ipomoea hederacea
In short: as §1

wild oat = assay: Test B pre/postemergence wild oat; type: in vivo, Avena fatua
In short: as §1

cocklebur = assay: Test B pre/postemergence cocklebur; type: in vivo, Xanthium strumarium
In short: as §1

bedstraw = assay: Test B pre/postemergence bedstraw; type: in vivo, Galium aparine
In short: as §1

rice = assay: Test B flood test rice; type: in vivo, Oryza sativa
In short: (§2)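 Flood test on plants grown to the 2-leaf stage; treated plants kept in greenhouse twelve to sixteen days, then visually rated against controls on a 0 (no effect) to 10 (complete control) scale.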

sugar beet = assay: Test B pre/postemergence sugar beet; type: in vivo, Beta vulgaris
In short: as §1

wheat = assay: Test B pre/postemergence wheat; type: in vivo, Triticum aestivum
In short: as §1

rape = assay: Test B pre/postemergence rape; type: in vivo, Brassica napus
In short: as §1

surinam grass = assay: Test B pre/postemergence surinam grass; type: in vivo, Brachiaria decumbens
In short: as §1

velvetleaf = assay: Test B pre/postemergence velvetleaf; type: in vivo, Abutilon theophrasti
In short: as §1

smallflower flatsedge = assay: Test B flood test smallflower flatsedge; type: in vivo, Cyperus difformis
In short: as §2

[1] = Preemergence, Rate 31 g/ha, visual rating, scale 0 to 10 (0 no effect, 10 complete control)
[2] = Preemergence, Rate 62 g/ha, scale of 0 to 10 where 0 is no effect and 10 is complete control
[3] = Preemergence, Rate 250 g/ha, scale of 0 to 10 where 0 is no effect and 10 is complete control
[4] = Rate 31 g/ha, Postemergence, scale 0 to 10
[5] = Rate 62 g/ha, Postemergence, scale of 0 to 10 where 0 is no effect and 10 is complete control
[6] = Rate 125 g/ha, Postemergence, scale 0 to 10
[7] = Rate 125 g/ha, Preemergence, scale of 0 to 10 where 0 is no effect and 10 is complete control
[8] = Rate 31 g/ha, Pre-emergence section (flood test species), scale 0 to 10
[9] = Rate 62 g/ha, headed Pre-emergence (flood test species), scale 0 to 10 (0 no effect, 10 complete control)
[10] = Rate 125 g/ha, Pre-emergence, flood test species, scale 0 to 10 where 0 is no effect and 10 is complete control
[11] = Rate 250 g/ha, Pre-emergence, flood-test species, scale 0 to 10, 0 is no effect, 10 is complete control

`CCCCn1c(=O)on(C(=O)N(c2ccc(F)cc2)C(C)C)c1=O` [Compound 221] was tested, and the “Redroot pigweed plant response rating” value (pigweed; [1]) was 7, the “Redroot pigweed plant response rating” value (pigweed; [2]) was 9 and the “Redroot pigweed plant response rating” value (pigweed; [3]) was 10. The “Redroot pigweed plant response rating” value (pigweed; [4]) was 2, the “Redroot pigweed plant response rating” value (pigweed; [5]) was 6 and the “Redroot pigweed plant response rating” value (pigweed; [6]) was 8. The “Redroot pigweed plant response rating” value (pigweed; [7]) was 10, the “Plant response rating (0 to 10; 0 is no effect, 10 is complete control), Redroot pigweed” value (pigweed; Rate 250 g/ha, Postemergence) was 8 and the “Blackgrass plant response rating” value (blackgrass; [1]) was 5. The “Blackgrass plant response rating” value (blackgrass; [2]) was 5, the “Blackgrass plant response rating” value (blackgrass; [3]) was 7 and the “Blackgrass plant response rating” value (blackgrass; [4]) was 2. The “Blackgrass plant response rating” value (blackgrass; [5]) was 2, the “Blackgrass plant response rating” value (blackgrass; [6]) was 9 and the “Blackgrass plant response rating” value (blackgrass; [7]) was 7. For the same molecule, the “Plant response rating (0 to 10; 0 is no effect, 10 is complete control), Blackgrass” value (blackgrass; Rate 250 g/ha, Postemergence) was 9, the “Giant foxtail plant response rating” value (giant foxtail; [1]) was 5 and the “Giant foxtail plant response rating” value (giant foxtail; [2]) was 5. For the same molecule, the “Giant foxtail plant response rating” value (giant foxtail; [3]) was 10, the “Giant foxtail plant response rating” value (giant foxtail; [4]) was 0 and the “Giant foxtail plant response rating” value (giant foxtail; [5]) was 2. For the same molecule, the “Giant foxtail plant response rating” value (giant foxtail; [6]) was 7, the “Giant foxtail plant response rating” value (giant foxtail; [7]) was 9 and the “Plant response rating (0 to 10; 0 is no effect, 10 is complete control), Giant foxtail” value (giant foxtail; Rate 250 g/ha, Postemergence) was 7. For the same molecule, the “Soybean plant response rating” value (soybean; [1]) was 0, the “Soybean plant response rating” value (soybean; [2]) was 0 and the “Soybean plant response rating” value (soybean; [3]) was 0. For the same molecule, the “Soybean plant response rating” value (soybean; [5]) was 2, the “Soybean plant response rating” value (soybean; [6]) was 2 and the “Soybean plant response rating” value (soybean; [7]) was 0. The “Plant response rating (0 to 10; 0 is no effect, 10 is complete control), Soybean” value (soybean; Rate 250 g/ha, Postemergence) was 3, the “Corn plant response rating” value (corn; [1]) was 0 and the “Corn plant response rating” value (corn; [2]) was 0. The “Corn plant response rating” value (corn; [3]) was 0, the “Corn plant response rating” value (corn; [4]) was 0 and the “Corn plant response rating” value (corn; [5]) was 0. The “Corn plant response rating” value (corn; [6]) was 0, the “Corn plant response rating” value (corn; [7]) was 0 and the “Plant response rating (0 to 10; 0 is no effect, 10 is complete control), Corn” value (corn; Rate 250 g/ha, Postemergence) was 0. For the same molecule, the “Morningglory plant response rating” value (morningglory; [1]) was 0, the “Morningglory plant response rating” value (morningglory; [2]) was 0 and the “Morningglory plant response rating” value (morningglory; [3]) was 0. For the same molecule, the “Morningglory plant response rating” value (morningglory; [4]) was 0, the “Morningglory plant response rating” value (morningglory; [5]) was 0 and the “Morningglory plant response rating” value (morningglory; [6]) was 0. The “Morningglory plant response rating” value (morningglory; [7]) was 0, the “Plant response rating (0 to 10; 0 is no effect, 10 is complete control), Morningglory” value (morningglory; Rate 250 g/ha, Postemergence) was 0 and the “Wild oats plant response rating” value (wild oat; [1]) was 2. The “Wild oats plant response rating” value (wild oat; [2]) was 2, the “Wild oats plant response rating” value (wild oat; [3]) was 4 and the “Wild oats plant response rating” value (wild oat; [5]) was 0. The “Wild oats plant response rating” value (wild oat; [6]) was 0, the “Wild oats plant response rating” value (wild oat; [7]) was 2 and the “Plant response rating (0 to 10; 0 is no effect, 10 is complete control), Wild oats” value (wild oat; Rate 250 g/ha, Postemergence) was 2. The “Cocklebur plant response rating” value (cocklebur; [2]) was 0, the “Cocklebur plant response rating” value (cocklebur; [3]) was 0 and the “Cocklebur plant response rating” value (cocklebur; [4]) was 0. For the same molecule, the “Cocklebur plant response rating” value (cocklebur; [5]) was 0, the “Cocklebur plant response rating” value (cocklebur; [6]) was 0 and the “Cocklebur plant response rating” value (cocklebur; [7]) was 0. The “Plant response rating (0 to 10; 0 is no effect, 10 is complete control), Cocklebur” value (cocklebur; Rate 250 g/ha, Postemergence) was 0, the “Bedstraw plant response rating” value (bedstraw; [1]) was 0 and the “Bedstraw plant response rating” value (bedstraw; [2]) was 0. The “Bedstraw plant response rating” value (bedstraw; [3]) was 4, the “Bedstraw plant response rating” value (bedstraw; [4]) was 2 and the “Bedstraw plant response rating” value (bedstraw; [5]) was 2. The “Bedstraw plant response rating” value (bedstraw; [6]) was 7, the “Bedstraw plant response rating” value (bedstraw; [7]) was 4 and the “Plant response rating (0 to 10; 0 is no effect, 10 is complete control), Bedstraw” value (bedstraw; Rate 250 g/ha, Postemergence) was 9. The “Rice plant response rating” value (rice; [8]) was 0, the “Rice plant response rating” value (rice; [9]) was 0 and the “Rice plant response rating” value (rice; [10]) was 0. For the same molecule, the “Rice plant response rating” value (rice; [11]) was 0, the “Sugarbeets plant response rating” value (sugar beet; [1]) was 0 and the “Sugarbeets plant response rating” value (sugar beet; [2]) was 0. For the same molecule, the “Sugarbeets plant response rating” value (sugar beet; [3]) was 10, the “Sugarbeets plant response rating” value (sugar beet; [5]) was 0 and the “Sugarbeets plant response rating” value (sugar beet; [6]) was 4. The “Sugarbeets plant response rating” value (sugar beet; [7]) was 4, the “Plant response rating (0 to 10; 0 is no effect, 10 is complete control), Sugarbeets” value (sugar beet; Rate 250 g/ha, Postemergence) was 4 and the “Wheat plant response rating” value (wheat; [1]) was 0. The “Wheat plant response rating” value (wheat; [2]) was 0, the “Wheat plant response rating” value (wheat; [3]) was 2 and the “Wheat plant response rating” value (wheat; [5]) was 0. For the same molecule, the “Wheat plant response rating” value (wheat; [6]) was 2, the “Wheat plant response rating” value (wheat; [7]) was 2 and the “Plant response rating (0 to 10; 0 is no effect, 10 is complete control), Wheat” value (wheat; Rate 250 g/ha, Postemergence) was 4. The “Rape plant response rating” value (rape; [1]) was 0, the “Rape plant response rating” value (rape; [2]) was 0 and the “Rape plant response rating” value (rape; [3]) was 8. The “Rape plant response rating” value (rape; [4]) was 0, the “Rape plant response rating” value (rape; [5]) was 0 and the “Rape plant response rating” value (rape; [6]) was 4. The “Rape plant response rating” value (rape; [7]) was 6, the “Plant response rating (0 to 10; 0 is no effect, 10 is complete control), Rape” value (rape; Rate 250 g/ha, Postemergence) was 4 and the “B. signalgrass plant response rating” value (surinam grass; [1]) was 2. The “B. signalgrass plant response rating” value (surinam grass; [2]) was 5, the “B. signalgrass plant response rating” value (surinam grass; Preemergence, Rate 250 g/ha, scale 0 to 10, 0 is no effect, 10 is complete control) was 6 and the “B. signalgrass plant response rating” value (surinam grass; [4]) was 0. The “B. signalgrass plant response rating” value (surinam grass; [5]) was 0, the “B. signalgrass plant response rating” value (surinam grass; Rate 125 g/ha, Postemergence, scale 0 (no effect) to 10 (complete control)) was 3 and the “B. signalgrass plant response rating” value (surinam grass; [7]) was 5. For the same molecule, the “Plant response rating (0 to 10; 0 is no effect, 10 is complete control), B. signalgrass” value (surinam grass; Rate 250 g/ha, Postemergence) was 8, the “Velvetleaf plant response rating” value (velvetleaf; [1]) was 0 and the “Velvetleaf plant response rating” value (velvetleaf; [2]) was 0. The “Velvetleaf plant response rating” value (velvetleaf; [3]) was 0, the “Velvetleaf plant response rating” value (velvetleaf; [5]) was 0 and the “Velvetleaf plant response rating” value (velvetleaf; [6]) was 0. For the same molecule, the “Velvetleaf plant response rating” value (velvetleaf; [7]) was 0, the “Plant response rating (0 to 10; 0 is no effect, 10 is complete control), Velvetleaf” value (velvetleaf; Rate 250 g/ha, Postemergence) was 0 and the “S. Flatsedge plant response rating” value (smallflower flatsedge; [8]) was 0. The “S. Flatsedge plant response rating” value (smallflower flatsedge; [9]) was 0, the “S. Flatsedge plant response rating” value (smallflower flatsedge; [10]) was 0 and the “S. Flatsedge plant response rating” value (smallflower flatsedge; [11]) was 0.
